Test system: 138582-337-R-J1-PDC spheroids with HUVEC/MSC, viability
Experiment: Anticancer human tumor 138582-337-R-J1-PDC patient-derived Merkel cell tumor cell line growth inhibition [IpAb]
Details: for IC50: curve of first compound; for viability, T/C: stronger effect = lower value
Procedure, shortened: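 Multi-cell spheroids of 60% tumour cells, 25% HUVEC and 15% MSC in ultra-low-attachment U-bottom wells, treated with agents combined with ipatasertib or abemaciclib. Half-log ranges top out near clinical Cmax, or 10 microM when Cmax is unknown.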

[1] = second compound 0.01 µM, first compound 0.0316 µM
[2] = second compound 0.01 µM, first compound 0.1 µM
[3] = second compound 0.0316 µM, first compound 0.0316 µM
[4] = second compound 0.0316 µM, first compound 0.1 µM
[5] = second compound 0.1 µM, first compound 0.0316 µM
[6] = second compound 0.1 µM, first compound 0.1 µM
[7] = second compound 0.316 µM, first compound 0.0316 µM
[8] = second compound 0.316 µM, first compound 0.1 µM
[9] = second compound 1 µM, first compound 0.0316 µM
[10] = second compound 1 µM, first compound 0.1 µM
[11] = second compound 0.01 µM, first compound 0.316 µM
[12] = second compound 0.01 µM, first compound 1 µM
[13] = second compound 0.01 µM, first compound 3.16 µM
[14] = second compound 0.01 µM, first compound 10 µM
[15] = second compound 0.0316 µM, first compound 0.316 µM
[16] = second compound 0.0316 µM, first compound 1 µM
[17] = second compound 0.0316 µM, first compound 3.16 µM
[18] = second compound 0.0316 µM, first compound 10 µM
[19] = second compound 0.1 µM, first compound 0.316 µM
[20] = second compound 0.1 µM, first compound 1 µM
[21] = second compound 0.1 µM, first compound 3.16 µM
[22] = second compound 0.1 µM, first compound 10 µM
[23] = second compound 0.316 µM, first compound 0.316 µM
[24] = second compound 0.316 µM, first compound 1 µM
[25] = second compound 0.316 µM, first compound 3.16 µM
[26] = second compound 0.316 µM, first compound 10 µM
[27] = second compound 1 µM, first compound 0.316 µM
[28] = second compound 1 µM, first compound 1 µM
[29] = second compound 1 µM, first compound 3.16 µM
[30] = second compound 1 µM, first compound 10 µM
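Also: spheroids exposed to compounds for seven days.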
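For viability, T/C in this document: 100% = DMSO vehicle control viability.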

Structure (SMILES)	IC50 (second compound 0.01 µM) [µM]	IC50 (second compound 0.0316 µM) [µM]	IC50 (second compound 0.1 µM) [µM]	IC50 (second compound 0.316 µM) [µM]	IC50 (second compound 1 µM) [µM]	viability, T/C [1] [%]	viability, T/C [2] [%]	viability, T/C [3] [%]	viability, T/C [4] [%]	viability, T/C [5] [%]	viability, T/C [6] [%]	viability, T/C [7] [%]	viability, T/C [8] [%]	viability, T/C [9] [%]	viability, T/C [10] [%]	viability, T/C [11] [%]	viability, T/C [12] [%]	viability, T/C [13] [%]	viability, T/C [14] [%]	viability, T/C [15] [%]	further results
CC(C)n1nc(-c2ccc3oc(N)nc3c2)c2c(N)ncnc21 + CCN1CCN(Cc2ccc(Nc3ncc(F)c(-c4cc(F)c5nc(C)n(C(C)C)c5c4)n3)nc2)CC1	0.0598	0.0269	0.0529	> 0.1	0.0694	58.2	42.2	47.5	38.7	55.1	43.6	53.2	50.2	52.1	48.6	–	–	–	–	–	viability, T/C (second compound 0.01 µM, first compound 0.000316 µM): 102%; viability, T/C (second compound 0.01 µM, first compound 0.001 µM): 88%; viability, T/C (second compound 0.01 µM, first compound 0.00316 µM): 73.4%; viability, T/C (second compound 0.01 µM, first compound 0.01 µM): 76.5%; viability, T/C (second compound 0.0316 µM, first compound 0.000316 µM): 88%; viability, T/C (second compound 0.0316 µM, first compound 0.001 µM): 74.5%; viability, T/C (second compound 0.0316 µM, first compound 0.00316 µM): 90.8%; viability, T/C (second compound 0.0316 µM, first compound 0.01 µM): 71%; viability, T/C (second compound 0.1 µM, first compound 0.000316 µM): 93.6%; viability, T/C (second compound 0.1 µM, first compound 0.001 µM): 88.4%; viability, T/C (second compound 0.1 µM, first compound 0.00316 µM): 78.8%; viability, T/C (second compound 0.1 µM, first compound 0.01 µM): 68.1%; viability, T/C (second compound 0.316 µM, first compound 0.000316 µM): 96.5%; viability, T/C (second compound 0.316 µM, first compound 0.001 µM): 96.6%; viability, T/C (second compound 0.316 µM, first compound 0.00316 µM): 80%; viability, T/C (second compound 0.316 µM, first compound 0.01 µM): 56.5%; viability, T/C (second compound 1 µM, first compound 0.000316 µM): 88.8%; viability, T/C (second compound 1 µM, first compound 0.001 µM): 93.5%; viability, T/C (second compound 1 µM, first compound 0.00316 µM): 82.6%; viability, T/C (second compound 1 µM, first compound 0.01 µM): 61.3%
CC1(C)CCC(CN2CCN(c3ccc(C(=O)NS(=O)(=O)c4ccc(NCC5CCOCC5)c([N+](=O)[O-])c4)c(Oc4cnc5[nH]ccc5c4)c3)CC2)=C(c2ccc(Cl)cc2)C1 + CCN1CCN(Cc2ccc(Nc3ncc(F)c(-c4cc(F)c5nc(C)n(C(C)C)c5c4)n3)nc2)CC1	> 10	> 10	> 10	> 10	> 10	90.6	83.3	93.3	86.7	86.5	79	85	90.7	88.4	86.3	79.3	83.7	75.1	83.2	86.4	viability, T/C [16]: 78.5%; viability, T/C [17]: 83.3%; viability, T/C [18]: 82.9%; viability, T/C [19]: 85%; viability, T/C [20]: 80%; viability, T/C [21]: 86.4%; viability, T/C [22]: 89.5%; viability, T/C [23]: 81.7%; viability, T/C [24]: 86.8%; viability, T/C [25]: 90.8%; viability, T/C [26]: 106%; viability, T/C [27]: 75.1%; viability, T/C [28]: 81%; viability, T/C [29]: 83.7%; viability, T/C [30]: 109%
CCCS(=O)(=O)Nc1ccc(F)c(C(=O)c2c[nH]c3ncc(-c4ccc(Cl)cc4)cc23)c1F + CCN1CCN(Cc2ccc(Nc3ncc(F)c(-c4cc(F)c5nc(C)n(C(C)C)c5c4)n3)nc2)CC1	> 10	> 10	7.49	> 10	> 10	99.8	103	97.9	96.8	93.2	87	105	95	99.4	93.8	95.9	98.8	112	81.9	96.8	viability, T/C [16]: 97.2%; viability, T/C [17]: 97.8%; viability, T/C [18]: 74.8%; viability, T/C [19]: 93.5%; viability, T/C [20]: 101%; viability, T/C [21]: 93.7%; viability, T/C [22]: 35.4%; viability, T/C [23]: 106%; viability, T/C [24]: 90.6%; viability, T/C [25]: 103%; viability, T/C [26]: 78.2%; viability, T/C [27]: 89.1%; viability, T/C [28]: 86.3%; viability, T/C [29]: 94.1%; viability, T/C [30]: 61.1%

Source: PubChem BioAssay AID2060343 (Molecular Pharmacology Branch, DTP, NCI, 2025)
